Usually IC50 stands for the concentration that gives 50% inhibition.

The values that follow come from patent US20230081426A1, “COMPOUNDS AND METHODS FOR KRAS MODULATION AND INDICATIONS THEREFOR” (Plexxikon Inc., priority 2020, published 2023).

The structures appear in SMILES notation.

Test [1] addresses T1, G12D-mutant human KRAS (amino acid residues 1-188) (Homo sapiens, UniProt P01116, G12D).
T1 construct: G12D or G12C-mutant human KRAS (amino acid residues 1-188) with FLAG tag; made in house; host or cells: E. coli
The test can be described thus: KRAS Binding Disruption Assay (AlphaScreen; biotinylated KRpep-2d analogue or RAF1-RBD), G12D. The conditions noted are these: KRAS G12D; geometric mean; read-out: KRAS GMean IC50 (uM) MUTATION: G12D. In short, it runs like this: (§1)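 AlphaScreen readout: signal falls as compound displaces biotinylated KRpep-2d analogue or RAF1-RBD from mutant KRAS. Both partners at 5-20 nM, 1 h binding at 25° C, then 10 μg/mL Anti-Flag acceptor and streptavidin donor beads for 1 h. IC50 by nonlinear regression of % inhibition.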
A general note: Bead proximity is the source of the signal in Alpha formats.

Test [2] has as its target T2, G12C-mutant human KRAS (amino acid residues 1-188) (Homo sapiens, UniProt P01116, G12C).
T2 construct: G12D or G12C-mutant human KRAS (amino acid residues 1-188) with FLAG tag; made in house; host or cells: E. coli
As to the kind of experiment: KRAS Binding Disruption Assay (AlphaScreen; biotinylated KRpep-2d analogue or RAF1-RBD), G12C. The conditions noted are these: geometric mean, read-out: KRAS GMean IC50 (uM) MUTATION: G12C. In short, it runs like this: as §1

T1 sequence (P01116 1-188 isoform P01116-2 G12D): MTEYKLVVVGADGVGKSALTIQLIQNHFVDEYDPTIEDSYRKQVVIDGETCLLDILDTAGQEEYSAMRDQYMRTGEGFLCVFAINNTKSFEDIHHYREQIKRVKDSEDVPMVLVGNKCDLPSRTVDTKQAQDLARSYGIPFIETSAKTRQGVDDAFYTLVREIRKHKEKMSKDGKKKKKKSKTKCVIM
T2 sequence (P01116 1-188 isoform P01116-2 G12C): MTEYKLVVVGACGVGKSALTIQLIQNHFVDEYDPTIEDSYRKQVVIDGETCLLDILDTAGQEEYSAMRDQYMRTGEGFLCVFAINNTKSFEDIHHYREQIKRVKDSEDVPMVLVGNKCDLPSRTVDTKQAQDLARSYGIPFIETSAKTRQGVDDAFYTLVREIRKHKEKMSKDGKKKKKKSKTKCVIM

`Cc1cccc2[nH]cc(-c3c(F)cc4c(N5C[C@H]6CC[C@@H](C5)N6)nc(OCC56CCCN5CCC6)nc4c3F)c12` [P-0790, 4-((1R,5S)-3,8-diazabicyclo[3.2.1]octan-3-yl)-6,8-difluoro-7-(4-methyl-1H-indol-3-yl)-2-((tetrahydro-1H-pyrrolizin-7a(5H)-yl)methoxy)quinazoline]: the IC50 in test [1] and in test [2] was 0.0001 to 10 µM each time.

In the case of `Oc1cc(-c2ccc3c(N4C[C@H]5CC[C@@H](C4)N5)nc(N4CCC(O)C4)nc3c2F)c2ccccc2c1` (stereo partly drawn) [P-0791, 1-(4-((1R,5S)-3,8-diazabicyclo[3.2.1]octan-3-yl)-8-fluoro-7-(3-hydroxynaphthalen-1-yl)quinazolin-2-yl)pyrrolidin-3-ol], the results for the IC50 in test [1] and in test [2] were 0.0001 to 10 µM and 100 to 1000 µM, respectively.

Consider `CC1(O)CN(c2nc(N3C[C@H]4CC[C@@H](C3)N4)c3ccc(-c4cc(O)cc5ccccc45)c(F)c3n2)C1` [P-0792, 1-(4-((1R,5S)-3,8-diazabicyclo[3.2.1]octan-3-yl)-8-fluoro-7-(3-hydroxynaphthalen-1-yl)quinazolin-2-yl)-3-methylazetidin-3-ol], for which the IC50 in test [1] fell in the range of 0.0001 to 10 µM; in test [2], 10 to 100 µM.

For `NC1CN(c2nc(N3C[C@H]4CC[C@@H](C3)N4)c3ccc(-c4cc(O)cc5ccccc45)c(F)c3n2)C1` [P-0793, 4-(2-(3-aminoazetidin-1-yl)-4-((1R,5S)-3,8-diazabicyclo[3.2.1]octan-3-yl)-8-fluoroquinazolin-7-yl)naphthalen-2-ol], the IC50 fell in the range of 0.0001 to 10 µM in test [1] and 10 to 100 µM in test [2].

Regarding `CN(C)C1CN(c2nc(N3C[C@H]4CC[C@@H](C3)N4)c3ccc(-c4cc(O)cc5ccccc45)c(F)c3n2)C1` [P-0794, 4-(4-((1R,5S)-3,8-diazabicyclo[3.2.1]octan-3-yl)-2-(3-(dimethylamino)azetidin-1-yl)-8-fluoroquinazolin-7-yl)naphthalen-2-ol], the IC50 in test [1] lay in the range of 0.0001 to 10 µM; in test [2], 10 to 100 µM.

On to `Cc1cccc2c(-c3c(F)cc4c(N5C[C@H]6CC[C@@H](C5)N6)nc(OC[C@@H]5CCCN5C)nc4c3F)c[nH]c12` [P-0795, 4-((1R,5S)-3,8-diazabicyclo[3.2.1]octan-3-yl)-6,8-difluoro-7-(7-methyl-1H-indol-3-yl)-2-(((S)-1-methylpyrrolidin-2-yl)methoxy)quinazoline], for which the IC50 in test [1] and in test [2] was 10 to 100 µM each time.

Turning to `CN1CCC[C@H]1COc1nc(N2C[C@H]3CC[C@@H](C2)N3)c2cc(F)c(-c3c[nH]c4cc(Cl)ccc34)c(F)c2n1` [P-0796, 4-((1R,5S)-3,8-diazabicyclo[3.2.1]octan-3-yl)-7-(6-chloro-1H-indol-3-yl)-6,8-difluoro-2-(((S)-1-methylpyrrolidin-2-yl)methoxy)quinazoline], the IC50 in test [1] was in the range of 0.0001 to 10 µM; in test [2], 100 to 1000 µM.

On to `COc1cccc2[nH]cc(-c3c(F)cc4c(N5C[C@H]6CC[C@@H](C5)N6)nc(OC[C@@H]5CCCN5C)nc4c3F)c12` [P-0797, 4-((1R,5S)-3,8-diazabicyclo[3.2.1]octan-3-yl)-6,8-difluoro-7-(4-methoxy-1H-indol-3-yl)-2-(((S)-1-methylpyrrolidin-2-yl)methoxy)quinazoline], for which the IC50 in test [1] lay within 0.0001 to 10 µM; in test [2] it was 10 to 100 µM.

For the compound `CN1CCC[C@H]1COc1nc(N2C[C@H]3CC[C@@H](C2)N3)c2cc(F)c(-c3c[nH]c4cc(C#N)ccc34)c(F)c2n1` [P-0798, 3-(4-((1R,5S)-3,8-diazabicyclo[3.2.1]octan-3-yl)-6,8-difluoro-2-(((S)-1-methylpyrrolidin-2-yl)methoxy)quinazolin-7-yl)-1H-indole-6-carbonitrile], the IC50 is 10 to 100 µM in test [1] and 100 to 1000 µM in test [2].

As to `COc1cccc2c(-c3c(F)cc4c(N5C[C@H]6CC[C@@H](C5)N6)nc(OC[C@@H]5CCCN5C)nc4c3F)c[nH]c12` [P-0799, 4-((1R,5S)-3,8-diazabicyclo[3.2.1]octan-3-yl)-6,8-difluoro-7-(7-methoxy-1H-indol-3-yl)-2-(((S)-1-methylpyrrolidin-2-yl)methoxy)quinazoline], the IC50 lay within 10 to 100 µM in test [1] and 100 to 1000 µM in test [2].

For `CN1CCC[C@H]1COc1nc(N2C[C@H]3CC[C@@H](C2)N3)c2cc(F)c(-c3c[nH]c4c(Cl)cccc34)c(F)c2n1` [P-0800, 4-((1R,5S)-3,8-diazabicyclo[3.2.1]octan-3-yl)-7-(7-chloro-1H-indol-3-yl)-6,8-difluoro-2-(((S)-1-methylpyrrolidin-2-yl)methoxy)quinazoline], the IC50 is 10 to 100 µM in test [1] and 100 to 1000 µM in test [2].

For the compound `CN1CCC[C@H]1COc1nc(N2C[C@H]3CC[C@@H](C2)N3)c2cc(F)c(-c3cn(C)c4ccccc34)c(F)c2n1` [P-0801, 4-((1R,5S)-3,8-diazabicyclo[3.2.1]octan-3-yl)-6,8-difluoro-7-(1-methyl-1H-indol-3-yl)-2-(((S)-1-methylpyrrolidin-2-yl)methoxy)quinazoline], the values for the IC50 in test [1] and in test [2] were 10 to 100 µM and 100 to 1000 µM, respectively.

Turning to `O=C1CCC(COc2nc(N3C[C@H]4CC[C@@H](C3)N4)c3ccc(-c4cc(O)cc5ccccc45)c(F)c3n2)N1` (stereo partly drawn) [P-0802, 5-(((4-((1R,5S)-3,8-diazabicyclo[3.2.1]octan-3-yl)-8-fluoro-7-(3-hydroxynaphthalen-1-yl)quinazolin-2-yl)oxy)methyl)pyrrolidin-2-one], the IC50 was 0.0001 to 10 µM in test [1] and 10 to 100 µM in test [2].

As for `Oc1cc(-c2ccc3c(N4C[C@H]5CC[C@@H](C4)N5)nc(OCCn4ccnc4)nc3c2F)c2ccccc2c1` [P-0803, 4-(2-(2-(1H-imidazol-1-yl)ethoxy)-4-((1R,5S)-3,8-diazabicyclo[3.2.1]octan-3-yl)-8-fluoroquinazolin-7-yl)naphthalen-2-ol], the IC50 in test [1] and in test [2] was 0.0001 to 10 µM in each case.

`Oc1cc(-c2ccc3c(N4C[C@H]5CC[C@@H](C4)N5)nc(OCc4ncco4)nc3c2F)c2ccccc2c1` [P-0804, 4-(4-((1R,5S)-3,8-diazabicyclo[3.2.1]octan-3-yl)-8-fluoro-2-(oxazol-2-ylmethoxy)quinazolin-7-yl)naphthalen-2-ol]: the figures for the IC50 in test [1] and in test [2] were 0.0001 to 10 µM and 10 to 100 µM, respectively.

With `Oc1cc(-c2ccc3c(N4C[C@H]5CC[C@@H](C4)N5)nc(OCC4CCOCC4)nc3c2F)c2ccccc2c1` [P-0805, 4-(4-((1R,5S)-3,8-diazabicyclo[3.2.1]octan-3-yl)-8-fluoro-2-((tetrahydro-2H-pyran-4-yl)methoxy)quinazolin-7-yl)naphthalen-2-ol], the IC50 lay in the range of 0.0001 to 10 µM in test [1] and 10 to 100 µM in test [2].

As to `Fc1cc(F)c2c(-c3c(F)cc4c(N5C[C@H]6CC[C@@H](C5)N6)nc(OCC56CCCN5CCC6)nc4c3F)c[nH]c2c1` [P-0806, 4-((1R,5S)-3,8-diazabicyclo[3.2.1]octan-3-yl)-7-(4,6-difluoro-1H-indol-3-yl)-6,8-difluoro-2-((tetrahydro-1H-pyrrolizin-7a(5H)-yl)methoxy)quinazoline], the IC50 in test [1] and in test [2] was 0.0001 to 10 µM each time.

`O=C(CCn1ccnc1)N1[C@@H]2CC[C@H]1CN(c1nc(OCC34CCCN3CCC4)nc3c(F)c(-c4cc(O)cc5ccccc45)ccc13)C2` [P-0807, 1-((1R,5S)-3-(8-fluoro-7-(3-hydroxynaphthalen-1-yl)-2-((tetrahydro-1H-pyrrolizin-7a(5H)-yl)methoxy)quinazolin-4-yl)-3,8-diazabicyclo[3.2.1]octan-8-yl)-3-(1H-imidazol-1-yl)propan-1-one]: the IC50 in test [1] and in test [2] was 0.0001 to 10 µM in each case.

Regarding `N#CCCC(=O)N1[C@@H]2CC[C@H]1CN(c1nc(OCC34CCCN3CCC4)nc3c(F)c(-c4cc(O)cc5ccccc45)ccc13)C2` [P-0808, 4-((1R,5S)-3-(8-fluoro-7-(3-hydroxynaphthalen-1-yl)-2-((tetrahydro-1H-pyrrolizin-7a(5H)-yl)methoxy)quinazolin-4-yl)-3,8-diazabicyclo[3.2.1]octan-8-yl)-4-oxobutanenitrile], the half-inhibitory concentration (IC50) in test [1] and in test [2] was 0.0001 to 10 µM in each case.

Regarding `Fc1c(-c2c[nH]c3cccc(F)c23)c(Cl)cc2c(N3C[C@H]4CC[C@@H](C3)N4)nc(OCC34CCCN3CCC4)nc12` [P-0809, 4-((1R,5S)-3,8-diazabicyclo[3.2.1]octan-3-yl)-6-chloro-8-fluoro-7-(4-fluoro-1H-indol-3-yl)-2-((tetrahydro-1H-pyrrolizin-7a(5H)-yl)methoxy)quinazoline], the values for the IC50 in test [1] and in test [2] were 0.0001 to 10 µM and 10 to 100 µM, respectively.

In the case of `Oc1cc(-c2ccc3c(N4C[C@H]5CC[C@@H](C4)N5)nc(OCC4CCCC4)nc3c2F)c2ccccc2c1` [P-0810, 4-(4-((1R,5S)-3,8-diazabicyclo[3.2.1]octan-3-yl)-2-(cyclopentylmethoxy)-8-fluoroquinazolin-7-yl)naphthalen-2-ol], the IC50 in test [1] lay within 0.0001 to 10 µM; in test [2], 10 to 100 µM.

Consider `OCCCc1nc(N2C[C@H]3CC[C@@H](C2)N3)c2ccc(-c3cc(O)cc4ccccc34)c(F)c2n1` [P-0811, 4-(4-((1R,5S)-3,8-diazabicyclo[3.2.1]octan-3-yl)-8-fluoro-2-(3-hydroxypropyl)quinazolin-7-yl)naphthalen-2-ol], for which the IC50 in test [1] fell in the range of 0.0001 to 10 µM; in test [2], 100 to 1000 µM.

As for `OC/C=C/c1nc(N2C[C@H]3CC[C@@H](C2)N3)c2ccc(-c3cc(O)cc4ccccc34)c(F)c2n1` [P-0812, 4-(4-((1R,5S)-3,8-diazabicyclo[3.2.1]octan-3-yl)-8-fluoro-2-((E)-3-hydroxyprop-1-en-1-yl)quinazolin-7-yl)naphthalen-2-ol], the IC50 in test [1] was in the range of 0.0001 to 10 µM; in test [2] it was 10 to 100 µM.
